Molecules are shown by their SMILES. Read-outs that look alike come from different tables or passages of the source.

For this assay, the system named is 3T3/IGF-1R cells. Briefly: IGF-1 Receptor Growth Assay (3T3/IGF-1R cells, SRB). The assay is classed as cell-based. The procedure:
Sulforhodamine B (SRB) Assay for Adherent Cells
Sulforhodamine B assays for measuring effects of TBST compounds on cell growth were based on procedures described by Skehan et al. J. Natl. Cancer Inst. 82:1107, 1990 incorporated herein by reference in its entirety, including any drawings. Unless otherwise stated the assays were carried out aseptically as follows:
IGF-1 Receptor Growth Assay
Cell lines: 3T3/IGF-1 R (10% FBS/2 mM glutamine/DMEM) NIH 3T3 c7 (10% calf serum/2 mM glutamine/DMEM) NOTE: NIH 3T3 cells (and cells derived from them) should never be allowed to become confluent because this increases the chance of spontaneous transformation. If they show signs of being transformed (morphological changes, piling up, moving into clumps), throw them away and thaw a fresh batch.
Materials: 10% FBS/2 mM glutamine/DMEM 0.5% FBS/2 mM glutamine/DMEM 10% calf serum/2 mM glutamine/DMEM IGF-1, 5 μM in sterile PBS (Promega/Fisher cat. #G5111) DMSO, tissue culture grade (Sigma cat. #D 2650) Hits from screen 11, 100 mM in DMSO 96-well plates, flat and round bottom 8 channel pipettor and sterile tips sterile reagent reservoirs sterile tubes (1.5 or 15 ml)
Methods (carry all steps out under asceptic conditions until fixing the cells for the SRB assay):
Day 0: Cell Plating--Trypsinize and count 3T3/IGF-1R and NIH 3T3 c7 cells. Dilute in growth media to 2000 cells/200 μl and seed flat bottom 96-well plates with 200 μl/well, one plate for two compounds for each cell line.
Day 1: Compound preparation--Add DMSO to each compound to make 100 mM stock solutions.
Aliquot each compound to 3-4 sterile screw cap tubes and store at -20° C. After thawing, make sure the compound has gone completely back into solution. Throw away after 3 freeze/thaws.
3T3/IGF-1R cells--For each 96-well plate, make 15 ml of 10 nM IGF-1/0.5% FBS/2 mM glutamine/DMEM (30 μl of 5 μM IGF-1/15 ml).
Aliquot 1.5 ml 10 nM IGF-1/0.5% FBS to a sterile tube for each compound to be tested (the first time a compound is tested, use a 15 ml tube in case it is necessary to add extra medium to get it into solution).
Add 3 μl of 100 mM stock of each compound to a tube so 200 μM final. Shake or vortex until it goes into solution. If it is necessary to add additional medium, note the final concentration.
For the DMSO control, prepare 0.5 ml/plate of 0.2% DMSO/10 nM IGF-1/0.5% FBS (2 μl DMSO/ml).
For every two compounds, aliquot 130 μl 10 nM IGF-1/0.5% FBS to wells in columns 2-11 of a 96-well round bottom plate.
Add 260 μl of each compound to four wells in column 12.
Do 2-fold dilutions (130 μl) from columns 12 to 3 on each plate (column 2 will be for the untreated control), mixing thoroughly.
Remove medium from 3T3/IGF-1 R cells, one plate at a time. […]

[1] abbreviates: read-out: GROWTH DATA: 3T3/IGF1R-0.5% FBS.
Where [2] appears, read: read-out: GROWTH DATA: 3T3/IGF1R-10% FBS.

Take `CC(C)S(=O)(=O)c1csc(NC(=O)Nc2cc(C(F)(F)F)cc(C(F)(F)F)c2)c1Cl` [Example Z2, N-[3-Chloro-4-(isopropylsulfonyl)thien-2-yl]-N'-(3,5-di-trifluoromethylphenyl)urea]: the IC50 under setting [1] was 0.7 µM and the IC50 under setting [2] is 20 µM.

As for `O=C(Nc1ccc(SC(F)(F)F)cc1)Nc1ccc(Oc2ccc(Cl)cc2Cl)nc1` [Example Z3], the IC50 by setting is: under setting [1], 0.6 µM; under setting [2], 18 µM.

(Values after patent publication US5773459A, “Urea- and thiourea-type compounds” (Sugen, Inc., priority 1995, dated 1998).)
